# Laboratory results published in patent US10487056B2, “Small molecule androgen receptor inhibitors and methods of use thereof” (GEORGETOWN UNIVERSITY, priority 2015, dated 2019).
# Tests used:
# Assay type in all cases: cell-based
# [1] = MTT cell viability assay, PrEC cells; conditions: human, non-tumorigenic primary prostate epithelial cells (PrEC), similar range of doses, read-out: cell viability retained
# Protocol: Cells were treated in the manner indicated below for the specified period of time. MTT assay was performed as described in Amin et al., Mol. Cancer Ther., 13:341-52 (2014).
# (§1) To determine the effects of SH-I-125 on prostate cancer cell growth, 22Rv1 cells were treated with SH-I-125 and cell viability was measured after a period of 3 days. […]. In comparison, non-tumorigenic primary prostate epithelial cells (PrEC) retained 80% viability in the presence of a similar range of doses of SH-I-125, showing that tumorigenic cells are more susceptible to the growth inhibitory properties of SH-I-125 compared to non-tumorigenic cells (FIG. 8B). […] Staurosporine was used as a positive control for cell death induction in live and dead assays (FIG. 9C).
# [2] = target: T1, AR (Homo sapiens, UniProt P10275); experiment: Immunofluorescence staining and Western blot of AR and PSA in VCaP cells; conditions: DHT 1 nM, MDV3100 10 μM or SH-I-125 1 μM, 24 hours
# T1 construct: Androgen-dependent VCaP cells were made to stably express an androgen-response element luciferase reporter (VCaP-ARE-luc); host or cells: VCaP / VCaP-ARE-luc
# T1 sequence (P10275 1-920): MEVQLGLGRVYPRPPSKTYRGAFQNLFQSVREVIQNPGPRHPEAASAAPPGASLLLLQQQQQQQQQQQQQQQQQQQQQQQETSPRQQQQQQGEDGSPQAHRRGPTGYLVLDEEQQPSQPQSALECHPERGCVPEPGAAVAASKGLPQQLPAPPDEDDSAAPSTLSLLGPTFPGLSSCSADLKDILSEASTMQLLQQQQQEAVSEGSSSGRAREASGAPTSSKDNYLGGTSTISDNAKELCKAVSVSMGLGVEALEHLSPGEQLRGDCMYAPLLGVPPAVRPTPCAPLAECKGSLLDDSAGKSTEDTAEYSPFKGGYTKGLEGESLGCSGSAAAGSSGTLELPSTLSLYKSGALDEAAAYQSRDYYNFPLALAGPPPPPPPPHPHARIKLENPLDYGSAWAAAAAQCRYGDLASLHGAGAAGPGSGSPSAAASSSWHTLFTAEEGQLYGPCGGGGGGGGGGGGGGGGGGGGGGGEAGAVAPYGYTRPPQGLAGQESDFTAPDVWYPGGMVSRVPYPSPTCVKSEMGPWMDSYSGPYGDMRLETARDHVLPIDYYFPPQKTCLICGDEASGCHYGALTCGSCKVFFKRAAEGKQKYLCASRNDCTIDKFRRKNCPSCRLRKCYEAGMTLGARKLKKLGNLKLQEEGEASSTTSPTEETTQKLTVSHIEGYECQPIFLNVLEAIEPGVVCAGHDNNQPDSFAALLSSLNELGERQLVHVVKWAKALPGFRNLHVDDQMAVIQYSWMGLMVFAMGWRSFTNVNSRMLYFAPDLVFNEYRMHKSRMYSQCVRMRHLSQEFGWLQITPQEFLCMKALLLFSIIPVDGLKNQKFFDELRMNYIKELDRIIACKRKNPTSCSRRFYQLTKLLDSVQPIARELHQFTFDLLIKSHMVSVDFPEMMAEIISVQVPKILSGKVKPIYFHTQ
# Protocol: Androgen receptor (AR) and PSA expression levels were assessed.
# AR and PSA expression levels were assessed. B-actin was used as a loading control.
# [3] = system: 22Rv1 cells; experiment: Live and dead cell staining, 22Rv1 cells; conditions: SH-I-125 1 μM, 3 days
# Protocol: Live and dead cells were determined using a Cell Viability/Cytotoxicity Assay kit (Biotium Inc.; Hayward, Calif.).
# as §1
# [4] = system: AR and AR-V7; experiment: Quantitative RT-PCR of AR and AR-V7 mRNA in 22Rv1 cells; conditions: SH-I-125 1 μM, 1-3 days, normalized to GAPDH
# Protocol: FIG. 12D is a graph showing the mRNA expression of AR and AR-V7 after treating 22Rv1 cells with SH-I-125 (1 μM) for 24 and 72 hrs. The AR and AR-V7 expression levels were assessed by qRTPCR and normalized to GAPDH expression levels.
# Quantitative RT-PCR was performed using the protocol and the primers as described in Amin et al., Mol. Cancer Ther., 13:341-52 (2014).
# To establish a mechanism by which SH-I-125 caused a decline in AR and AR-V7 levels, the relative expression of AR and AR-V7 in 22Rv1 cells that had been treated with SH-I-125 for a period of 1-3 days was measured. […] To determine whether proteasomal mechanisms are responsible for the decline in AR and AR-V7 levels, 22Rv1 cells were treated with 5 μM SH-I-125 for a period of 48 hours in the presence of proteasome inhibitor, MG132.
# [5] = system: 22Rv1-MDVR cells; experiment: Cell viability (MTT), 22Rv1-MDVR cells; conditions: MDV3100, ARN-509 10 μM, SH-I-125 range, 3 days
# Protocol: Cell viability was measured using the MTT assay.
# [6] = system: VCaP-MDVR cells; experiment: Caspase-Glo 3/7 activity assay, VCaP-MDVR cells; conditions: SH-I-125 1 μM, 3 days
# Protocol: Caspase 3/7 activity was measured using Caspase-Glo 3/7 substrates. Data represent mean of three independent experiments with quadruplicate samples; bars, SEM.
# The emergence of resistance to clinical anti-androgens is an ongoing problem in the treatment of castration-resistant prostate cancer.
# [7] = system: AR; experiment: 22Rv1-MDVR-ARE-luc luciferase reporter assay; conditions: 22Rv1-MDVR-ARE-luc cells, range of doses, 24 hours
# Protocol: […]. Luciferase activity was measured and plotted as a percentage of control. Data represent the mean of three independent experiments with quadruplicate samples; bars, SEM. ***, p value <0.001 determined by ANOVA.
# VCaP-MDVR and 22Rv1-MDVR stably expressing ARE-luciferase construct (VCaP-MDVR-ARE-luc and 22Rv1-MDVR-ARE-luc) were generated as described above in the Materials and Methods section. […].
smiles,measurement,setting,value
"COc1ccc2c(c1)[nH]c1c(C)c(OS(=O)(=O)c3cccc4ccccc34)ccc12 [SH-I-125, 7-methoxy-1-methyl-9H-carbazol-2-yl naphthalene-1-sulfonate]",viability at 3 days,[1],80%
same,AR nuclear localization,[2],blocked AR nuclear localization
same,PSA expression,[2],inhibited PSA expression
same,live and dead cell staining,[3],killed 22Rv1 cells
same,AR and AR-V7 message (mRNA) levels,[4],did not affect the message levels
same,cell growth / viability,[5],effective in preventing the growth
same,caspase 3/7 activation,[6],inducing caspase activation
same,luciferase activity (AR activity),[7],retained its inhibitory effect
